Laboratory results from article PMC8658773, “Two New Isoprenoid Flavonoids from Sophora flavescens with Antioxidant and Cytotoxic Activities” (Molecules, 2021).

What was measured:
[1] = ABTS free radical scavenging assay; assay type: biochemical; conditions: for ABTS radical scavenging activity (inhibition rate): 20 μg/mL, SD in brackets
Description: The third assay, the ABTS free radical scavenging screen was performed by previous experiments with slight changes. First, we needed to prepare for the ABTS^+ solution. […] Then, they were mixed with equal volume at room temperature and kept away from light for 12 h, the mixed solution was diluted with ethanol until the absorbance of […]. Thus, the ABTS^+ solution was obtained. Furthermore, the compounds (100 µL, 40 µg/mL) with ABTS^+ solution (100 µL) were also added to the 96-well plates (as the value of Ai) and were interacted for 10 min at room temperature in the dark, then the absorbance at 734 nm was measured. VC was used as the positive control. Antioxidant capacity was calculated according to the first formula (the value of 100 µL ethanol with 100 µL ABTS^+ solution as A0, the value of 100 µL compounds with 100 µL ethanol as Aj). All experiments were carried out in triplicate.

[2] = PTIO free radical scavenging assay; assay type: biochemical; conditions: for PTIO radical scavenging activity (inhibition rate): 8 μg/mL, SD in brackets
Description: PTIO free radical scavenging was also performed following previous reports with some modification. VC was used as the positive control. PTIO radicals were dissolved with phosphate buffer (PBS) (pH 7.4, 50 mM) with a concentration of 0.05 mg/mL. Then, the samples (40 µL, 40 µg/mL) and PTIO solution (160 µL) were added into 96-well plates (as the value of Ai). After being thoroughly mixed, the reaction solution was incubated at 37 °C in a water-bath for 2 h. Then, the absorbance was measured at 557 nm. PTIO free radical scavenging was calculated using the above equation. (40 µL PBS with 160 µL PTIO as A0, 40 µL compounds with 160 µL PBS as Aj).

[3] = DPPH free radical scavenging assay; assay type: biochemical; conditions: for DPPH radical scavenging activity (inhibition rate): 20 μg/mL, SD in brackets
Description: The in vitro antioxidant activity tests were conducted according to previous reports. Among them, the DPPH free radical scavenging assay was slightly modified. Briefly, the DPPH material was precisely weighed, ethanol solution was added to obtain a concentration of 0.1 mmol/L (to use immediately, or store in the dark). Then, the compounds (100 µL, 40 µg/mL) with DPPH solution (100 µL) (Ai) were added to 96-well plates and incubated for 30 min at room temperature. Subsequently, the activity was measured using the Thermo Scientific Varioskan LUX ([…], VL0L00D0, USA), with an absorbance of 570 nm. Vitamin C (VC) (40 µg/mL) was used as the positive control.

LO2 cells = test: Cytotoxic activity (MTS assay), LO2 normal cells; assay type: cell-based, human; conditions: Homo sapiens, L02; 10 µM; SD in brackets; read-out: LO2 cell inhibitory activity (Table S7)
HepG2 cells = test: Cytotoxic activity (MTS assay), HepG2; assay type: cell-based, human; conditions: Homo sapiens, HepG2, 10 µM; SD in brackets; read-out: HepG2 cell inhibitory activity (Table S4)
A549 cells = test: Cytotoxic activity (MTS assay), A549; assay type: cell-based, human; conditions: Homo sapiens, A549; 10 µM; SD in brackets; read-out: A549 cell inhibitory activity (Table S5)
MCF7 cells = test: Cytotoxic activity (MTS assay), MCF7; assay type: cell-based, human; conditions: Homo sapiens, MCF7; 10 µM; SD in brackets; read-out: MCF-7 cell inhibitory activity (Table S6)

Row | Structure (SMILES) | ABTS radical scavenging IC50 [1] | PTIO radical scavenging activity (inhibition rate) [2] | DPPH radical scavenging activity (inhibition rate) [3] | inhibition at 10 µM (LO2 cells) | inhibition at 10 µM (HepG2 cells) | inhibition at 10 µM (A549 cells) | inhibition at 10 µM (MCF7 cells) | ABTS radical scavenging activity (inhibition rate) [1] | PTIO radical scavenging IC50 [2] | DPPH radical scavenging IC50 [3]
1 | COc1cc(O)c2c(=O)c(-c3ccc(O)c(OC)c3)coc2c1 [Compound 17, 7,3′-di-O-methyl] | 2.91 µg/mL | 38.9% (2.4%) | 42.0% (1.4%) | 1.1% | 8.7% | 40.9% | 5.3% |  |  | 
2 | O=c1ccc2ccc(O)cc2o1 [Compound 24, 7-hydroxycoumarin] |  | 36.6% (3.1%) | 25.2% (3.7%) | -0.3% |  | 21.4% | 5.7% | 16.8% (3.2%) |  | 
3 | CC(C)=CCC(Cc1c(O)cc(O)c2c1OC(c1ccc(O)cc1O)CC2=O)C(C)CO (stereo not drawn) [Compound 9, kushenol Q] | 3.72 µg/mL | 36.7% (0.8%) | 30.4% (5.4%) | 5.3% | 3.5% | -10.9% | 4.5% |  |  | 
4 | O=c1c(-c2ccc(O)cc2)coc2cc(O)cc(O)c12 [Compound 18, genistein] |  | 35.8% (2.0%) | 28.0% (6.2%) | 5% | 1% | 6.6% | 4.3% | 69.0% (1.4%) |  | 
5 | C=C(C)[C@H](CC=C(C)C)Cc1c(O)cc(OC)c(C(=O)/C=C/c2ccc(O)cc2O)c1O [Compound 6, kuraridine] | 3.52 µg/mL | 40.6% (2.2%) | 41.9% (5.6%) | -0.2% | 0.9% | 2% | 15% |  |  | 
6 | O=C1O[C@H]([C@@H](O)CO)C(O)=C1O [VC, vitamin C, reference compound] |  |  | 97% |  |  |  |  |  |  | 
7 | O=C1C[C@@H](c2ccc(O)cc2)Oc2cc(O)cc(O)c21 [Compound 11, naringenin] |  | 37.8% (2.2%) | 24.5% (3.9%) | 5.8% | 3.6% | 14.7% | 0.7% | 55.4% (2.2%) |  | 
8 | O=c1c(O)c(-c2ccc(O)c(O)c2)oc2cc(O)cc(O)c12 [Compound 16, quercetin] | 0.90 µg/mL | 62.0% (2.2%) |  | 9.8% | 4.6% | 12.1% | 11.9% |  | 4.71 µg/mL | 1.11 µg/mL
9 | O=C(O)c1ccc(O)cc1 [Compound 28, 4-hydroxybenzoic acid] |  | 37.3% (2.3%) | 20.4% (8.6%) | 2.8% | 10.2% | 15.5% | 1.1% | 2.2% (0.9%) |  | 
10 | C=C(C)[C@H](CCC(C)(C)O)Cc1c(O)cc(OC)c2c1O[C@H](c1ccc(O)cc1O)CC2=O [Compound 12, kurarinol] | 1.31 µg/mL | 37.5% (1.7%) | 30.8% (1.9%) | 11.4% | 0.9% | 37% | 4.8% |  |  | 
11 | O=C(O)c1ccc(O)cc1O [Compound 27, b-resorcylic acid] |  |  | 23.1% (2.5%) | 1.9% | 1.9% | 22.8% | 14.1% | 63.4% (1.4%) |  | 
12 | O=C(/C=C/c1ccc(O)cc1)c1ccc(O)cc1O [Compound 8, isoliquiritigenin] |  |  |  | -2.1% | 1.7% | -5.7% | 7.2% |  |  | 
13 | COc1ccc(-c2coc3cc(O)ccc3c2=O)cc1O [Compound 19, calycosin] |  | 37.0% (0.7%) | 25.6% (1.1%) | 16.6% | 4.3% | 6.4% |  | 51.3% (2.4%) |  | 
14 | O=c1cc(-c2ccc(O)cc2)oc2cccc(O)c12 [Compound 22, 5,4′-dihydroxyflavone] |  | 39.4% (1.0%) | 34.6% (3.4%) | -4.6% | 0.6% | 29.7% | 9% | 76.3% (4.7%) |  | 
15 | CC(C)=CCc1c(O)cc(O)c2c(=O)c(O)c(-c3ccc(O)cc3)oc12 [Compound 15, noranhyoicaritin] | 1.91 µg/mL | 68.0% (8.1%) |  | 7.7% | 8.8% | 13.4% | 5.8% |  | 2.70 µg/mL | 2.42 µg/mL
16 | O=c1cc(-c2ccc(O)c(O)c2)oc2cc(O)cc(O)c12 [Compound 23, luteolin] | 1.51 µg/mL | 43.3% (2.0%) |  | 19.8% | 1.1% | 41.3% | -4.7% |  |  | 0.90 µg/mL
17 | COc1ccc(C(=O)O)c(O)c1 [Compound 26, 4-methoxysalicylic acid] |  | 37.7% (1.6%) | 25.4% (4.9%) | -6.2% | 1.5% | 9.4% | 0.7% | 72.9% (3.0%) |  | 
18 | O=c1ccc2ccc(O)c(O)c2o1 [Compound 25, 7,8-dihydroxycoumarin] |  | 46.3% (4.8%) |  | 8.6% | 8.5% | 32.4% | 4.8% | 97.8% (1.8%) |  | 0.80 µg/mL
19 | C=C(C)C(CCC(C)(C)O)Cc1cc(O)c(C(=O)/C=C/c2ccc(O)cc2O)c(OC)c1O (stereo not drawn) [Compound 5, kuraridinol] |  | 37.7% (1.8%) | 29.1% (8.7%) | -7.2% | 5.6% | -0.2% | 7.4% | 75.7% (1.5%) |  | 
20 | COc1cc(O)c(CC=C(C)C)c(O)c1C(=O)/C=C/c1ccc(O)cc1 [Compound 7, xanthohumol] |  | 40.3% (1.4%) | 34.7% (1.9%) | 13.9% | 10.4% | 16.4% | 11.7% | 87.9% (2.0%) |  | 
21 | CC(C)=CCc1c(O)cc(O)c2c1OC(c1ccc(O)cc1)CC2=O (stereo not drawn) [Compound 10, sophoraflavanone B] |  | 38.6% (1.3%) | 32.2% (1.9%) | 4.7% | 9.3% | 8% | 7.7% | 88.0% (2.1%) |  | 
22 | COc1ccc(-c2coc3cc(O)ccc3c2=O)cc1 [Compound 20, formononetin] |  | 36.2% (2.0%) | 20.2% (1.0%) | 5.8% | 1.4% | -6.2% | 8.7% | 23.3% (0.9%) |  | 
